Reference: patent publication US10238713B2, “Cyclic tetrapeptides and therapeutic applications thereof” (LODZ UNIVERSITY OF TECHNOLOGY, priority 2010, dated 2019)
Where two headings read alike, the source gives them in different places. Non-standard residues stand in square brackets, D forms with d. Residues, ends and D or L forms follow the SMILES beside them. *: point of attachment. Tic = O=C(O)[C@@H]1Cc2ccccc2CN1; β3hF = N[C@H](CC(=O)O)Cc1ccccc1; tBu = CC(C)(C)*

Tests used:
human PBMC = experiment: Toxicity test: PBMC survival in 24 h culture (MTT); details: ANOVA
Experimental: (§2) PBMC were isolated by centrifugation on Ficoll-uropoline gradient (density 1.077 g/ml) (Lymphoprep; PAA Laboratories), at 800×g for 20 min at 4° C. The interphase cells, consisting of lymphocytes (20%) and monocytes (80%) were then washed three times with Hanks' medium and re-suspended in the culture medium at density of 2×10^6 cells/ml.
Appropriate dilutions of DMSO in RPMI 1640 medium were used as controls. Cell survival was determined by the MTT colorimetric method (Hansen et al., J. Immunol. Methods, 1989, pp. 203-210). The data are presented as a mean OD value from quadriplicate wells ±standard error (SE). The cultures “Control (−)” contained only cells in the culture medium.
The assay was performed per Hansen et al., J. Immunol. […] Briefly, 25 μl of MTT (5 mg/ml) stock solution was added per well at the end of cell incubation and the plates were incubated for 3 h in a cell culture incubator. Then, 100 μl of the extraction buffer (20% SDS with 50% DMF, pH 4.7) was added. After additional overnight incubation, the optical density was measured at 550 nm (Dynatech 5000).

[1] = tested on: PHA-induced proliferation of human peripheral blood mononuclear cells (PBMC); experiment: Proliferative response of PBMC to PHA (MTT); format: cell-based; details: four-day incubation
Experimental: as §2
The isolated PBMC were distributed into 96-well flat-bottom plates in 100 μl aliquots (2×10^5 cells/well). PHA was used at concentration of 5 μg/ml. The compounds were tested at concentrations of 1, 10 and 100 μg/ml. DMSO at appropriate dilutions served as control. After a four-day incubation in a cell culture incubator, the proliferative response of cells was determined by the colorimetric MTT method (Hansen et al., J. Immunol. Methods, 1989, pp. 203-210). The data are presented as a mean OD value from quadriplicate wells ±standard error (SE). The cultures “Control (−)” contained no mitogen (PHA). The cultures “Control (PHA)” contained PHA but not cyclic tetrapeptides.
Briefly, 25 μl of MTT (5 mg/ml) stock solution was added per well at the end of cell incubation and the plates were incubated for 3 h in a cell culture incubator. Then, 100 μl of the extraction buffer (20% SDS with 50% DMF, pH 4.7) was added. After additional overnight incubation, the optical density was measured at 550 nm (Dynatech 5000).

[2] = tested on: mice, carrageenan-induced foot pad edema; experiment: Carrageenan-induced foot-pad edema test; format: in vivo, mouse; details: 4 h after carrageenan; peptides 250 μg i.p., DEX 25 μg i.p., 30 min before; FIGS. 17A-17C
Experimental: (§1) In this and the air-pouch test, 1.5 mg peptide was dissolved in 300 μl of DMSO, then in 0.9% NaCl to achieve the desired dose (250 μg/0.2 ml or 100 μg/0.2 ml). Carrageenan (Sigma) was dissolved in 0.9% aqueous NaCl (overnight). 50 μl of 2% carrageenan solution was injected intradermally into hind foot pads. The peptides were given in a single 250 μg dose (0.2 ml) per mouse intraperitoneally (i.p.), 30 min before carrageenan administration. Dexamethasone (DEX) (Dexaven, Polfa, Poland), a reference drug, was given i.p. in dose 25 μg per mouse. Control mice were administered i.p. appropriately diluted solvent (DMSO in aqueous NaCl) instead of peptides. The foot pads of “background” (BG) mice were injected with 50 μl of 0.9% aqueous NaCl. Foot pad edema was measured with a spring caliper, 2 h, 3 h and 4 h after administration of carrageenan. The results are presented in FIGS. 17A, 17B and 17C as mean values of the antigen-specific increase of the foot pad thickness measured in 5 mice in each experimental group and expressed in mm ±SE (only results from measurements 4 h following administration of carrageenan are presented in figures). Statistics: FIG. 17A: Control vs: DEX P=0.0001; 4B8M P=0.0001; P25 NS (P=1.0000); P28 NS (P=1.0000); P31 NS (P=0.0528); P35 P=0.0008 (ANOVA of Kruskal-Wallis); FIG. 17B: Statistics: Control vs: P22 NS (P=1.0000); P26 NS (P=1.0000); P27 P=0.0050; P30 P=0.0004; P33-b NS (P=1.0000); SP00-b P=0.0001; P00S-b NS (P=1.0000) (ANOVA of Kruskal-Wallis); FIG. 17C: Statistics: Control vs: P21 P=0.0147; P23-2 P=0.0083; P24 P=0.0001; P29 NS (P=0.9999); P32 P=0.0001; P33 NS (P=0.6806); P34 NS (P=0.1920) (ANOVA).

[3] = tested on: mice, carrageenan air pouch; experiment: Carrageenan air-pouch test (exudate cell number); format: in vivo, mouse; details: peptides 100 μg i.p. one hour before carrageenan, 24 h; FIGS. 18A-18B
Experimental: as §1
Air pouches were formed by subdermal injection into the dorsal region (in a halothane anesthesia) of 5 cm^3 of air (needle 23G x 11/4, 5 ml syringe). On day 3 the air pouches were given an additional 2 ml of air and an inflammatory process was elicited by an intra-pouch injection of 1% of carrageenan in 0.5 ml of 0.9% aqueous NaCl. The peptides were given i.p. at a dose of 100 μg one hour before carrageenan injection into the air pouch. The mice from the “background” (BG) group were given 0.9% aqueous NaCl i.p. and 0.9% aqueous NaCl into the air pouches. Control mice were given appropriately diluted DMSO i.p. and carrageenan into the air pouches. 24 h after carrageenan injection, the mice were sacrificed by cervical dislocation, the air pouches were supplemented with 1 ml of 0.9% aqueous NaCl and the exudates from the air pouches were aspirated using a syringe. The exudates were diluted with 0.9% aqueous NaCl and the cells were counted in a Bürker hemocytometer. Data are presented in FIGS. 18A and 18B as the mean values from 10 mice/group (cell number×10^6 per mouse) ±SE. Then the cells were centrifuged and 0.1 ml of the supernatant was saved for TNF-α determination (see Determination of TNF-α activity, above). The cell pellets were used to perform smears on microscopic glasses, which were stained with Giemsa and May-Grünwald reagents for evaluation of mast cell degranulation. Cell analysis was performed by a histologist using a light microscope and 1000× magnification. The content of intact and degranulated mast cells is given in percentage (mean values from 10 mice/group) ±SE. Statistics: FIG. 18A: BG vs Control P=0.0000; Control vs: DEX P=0.0034; 4B8M P=0.0005; P22 NS (P=0.7275); P26 P=0.0032; P27 NS (P=0.0659); P35 NS (P=1.0000) (ANOVA of Kruskal-Wallis); FIG. 18B: Control vs: P21 NS (P=0.322); P23-2 P=0.0020; P24 P=0.0001; P25 P=0.0418; P28 NS (P=0.3502); P29 NS (P=0.0582); P30 P=0.0006; P31 P=0.0078; P32 P=0.0340; P33 NS (P=0.9993); P34 NS (p=0.0566) (ANOVA).

[4] = tested on: LPS-induced TNF-α production; format: cell-based; details: Table 2A
Experimental: Human whole blood was diluted 10-fold with RPMI-1640 medium and distributed to 24-well culture plates in 1 ml aliquots. LPS was added to the culture at a concentration of 1 μg/ml. The studied peptides were used at concentrations of 1, 10 and 100 μg/ml. After overnight incubation, the supernatants were harvested and frozen at −20° C. until cytokine determination. TNF-α activity was determined using a bioassay. Briefly, WEHI 164.13 cells (ATCC CRL 1751) were seeded at a concentration of 2×10^4 cells/well in quadriplicate. Increasing dilutions of the assayed supernatant were mixed with the target cells in the presence of actinomycin D (1 μg/ml). After 20 h of incubation, MTT was added into the wells, and the cultures were incubated for an additional 4 h. […] The detection limit of the assay was about 2.5 pg/ml. One unit of TNF-α activity was defined as an inverse of supernatant dilution where 50% cell death took place. The cultures labeled “Control (−)” contained no LPS. The cultures labeled “Control (LPS)” contained LPS and none of the studied compounds. Statistical analysis was not applied since the data derive from single cultures (wells).

[5] = 10 μg/ml, FIGS. 8A-8F (4B8M repeated per figure)
[6] = 100 μg/ml, FIGS. 8A-8F (4B8M repeated per figure)
[7] = compound 1 μg/ml, LPS 1 μg/ml, overnight
[8] = compound 100 μg/ml (DMSO only: 196)

Compound | PBMC survival, P vs DMSO at appropriate dilution (human PBMC; 1 μg/ml, FIGS. 8A-8B) | PBMC survival, P vs DMSO at appropriate dilution (human PBMC; [5]) | PBMC survival, P vs DMSO at appropriate dilution (human PBMC; [6]) | PHA-induced PBMC proliferation, P vs DMSO at appropriate dilution ([1]; 10 μg/ml, FIGS. 9A-9F) | PHA-induced PBMC proliferation, P vs DMSO at appropriate dilution ([1]; 100 μg/ml, FIGS. 9A-9F) | foot pad edema (increase of foot pad thickness), P vs Control [2] | air pouch exudate cell number, P vs Control [3] | PHA-induced PBMC proliferation, P vs DMSO at appropriate dilution ([1]; 1 μg/ml, FIGS. 9A-9B) | % inhibition vs. DMSO ([4]; compound 1 μg/ml) [%] | TNF-α [4, 7] [pg/mL] | % inhibition vs. DMSO ([4]; compound 10 μg/ml) [%] | TNF-α ([4]; compound 10 μg/ml) [pg/mL] | % inhibition vs. DMSO ([4]; compound 100 μg/ml) [%] | TNF-α [4, 8] [pg/mL]
CC(C)(C)Oc1ccc(C[C@@H]2NC(=O)C[C@H](Cc3ccccc3)NC(=O)[C@@H]3CCCN3C(=O)[C@@H]3CCCN3C2=O)cc1 [I-N] (cyclo(PP[β3hF]Y(tBu))) | 1.0000 | 1.0000 | 1.0000 |  |  |  |  |  |  |  |  |  |  | 
CC(C)(C)OC[C@@H]1NC(=O)[C@H](Cc2ccccc2)NC(=O)C[C@H](Cc2ccccc2)NC(=O)[C@@H]2CCCN2C1=O [I-AL] (cyclo(FS(tBu)P[β3hF])) |  | 1.0000 | 0.0466 | 0.2258 | 0.9976 | 0.0001 |  |  |  |  |  |  |  | 
O=C1N[C@@H](Cc2ccccc2)CC(=O)N2Cc3ccccc3C[C@H]2C(=O)N2CCC[C@H]2C(=O)N2CCC[C@@H]12 [I-AA] (cyclo(PP[β3hF][Tic])) |  | 0.9997 | 0.9978 |  | 1.0000 | 1.0000 | 0.3502 |  |  |  |  |  |  | 
C[C@@H]1C[C@H]2[C@@H]3CCC4=CC(=O)C=C[C@]4(C)[C@@]3(F)[C@@H](O)C[C@]2(C)[C@@]1(O)C(=O)CO [DEX, dexamethasone, reference compound] |  |  |  |  |  | 0.0001 | 0.0034 |  |  |  |  |  |  | 
O=C1C[C@H](Cc2ccccc2)NC(=O)[C@@H]2CCCN2C(=O)[C@H]2CCCN2C(=O)[C@H](Cc2ccccc2)N1 [I-F] (cyclo([dP]P[β3hF]F)) |  |  |  | 0.9930 | 0.0001 |  |  | 1.0000 | 25.9 | 6052 | 34.8 | 5222 | 61.2 | 76
O=C1C[C@H](Cc2ccccc2)NC(=O)[C@@H]2CCCN2C(=O)[C@@H]2CCCN2C(=O)[C@@H](Cc2ccccc2)N1 [I-D] (cyclo(PP[β3hF][dF])) |  |  |  | 0.9999 | 1.0000 |  |  | 1.0000 | 14.1 | 7016 | 28.1 | 5757 | 28.1 | 141
